In patent publication US10918645B2 (LIFEARC, priority 2016, dated 2021):

Columns and labels:
LRRK2 G2019S = LRRK2 G2019S (Homo sapiens (Human), UniProt Q5S007, G2019S); assay: Adapta Kinase Assay (LRRK2_IC50 assay); format: biochemical; conditions: inhibition of LRRK2 G2019S
Description: In Adapta™ Kinase Assay (LRRK2_IC50 assay): the Kinase Reaction Buffer contained 5× Kinase Buffer S (Life Technologies, PV5213) and 2 mM DTT (Life Technologies, P2325).
The Adapta® universal kinase assay is a homogenous, fluorescent based immunoassay for the detection of ADP. In contrast to ATP depletion assays, the Adapta® assay is extremely sensitive to ADP formation such that a majority of the signal change occurs in the first 10-20% conversion of ATP to ADP. This makes the Adapta® universal kinase assay ideally suited for use with low activity kinases.
Prepare a 1× solution of kinase reaction buffer from the 5× Kinase Buffer S stock (listed above) by adding 2 ml of 5× stock to 8 ml of H2O to make 10 ml of 1× kinase reaction buffer. To this, add 20 μl of 1 M DTT.
Kinase reactions are performed in a 10 μl volume in low-volume 384-well plates. […] Other non—treated assay plates, while not tested, may also be suitable. The concentration of substrate in the assay is 100 μM, and the 1× kinase reaction buffer consists of 50 mM Tris-HCl pH8.5, 10 mM MgCl2, 1 mM EGTA, 0.01% Brij-35, and 2 mM DTT, plus any additional additives that may be required for a specific kinase. […] The plate is allowed to equilibrate at room temperature for at least 30 minutes before being read on a plate reader configured for Adapta™ TR-FRET.
The data presented in this document were generated using a BMG LABTECH PHERAstar plate reader using the appropriate filters and instrument settings for Adapta™. The Test Compounds are screened in 1% DMSO (final) in the well. For 8 point titrations, 5-fold serial dilutions are conducted from the starting concentration.
(§1) IC50 estimates were obtained using the software XLfit (IDBS Inc.).

JAK2 = JAK2 (Homo sapiens (Human), UniProt O60674); assay: LANCE Kinase Assay (JAK2_IC50 selectivity assay); format: biochemical
JAK2, sequence (O60674 whole entry): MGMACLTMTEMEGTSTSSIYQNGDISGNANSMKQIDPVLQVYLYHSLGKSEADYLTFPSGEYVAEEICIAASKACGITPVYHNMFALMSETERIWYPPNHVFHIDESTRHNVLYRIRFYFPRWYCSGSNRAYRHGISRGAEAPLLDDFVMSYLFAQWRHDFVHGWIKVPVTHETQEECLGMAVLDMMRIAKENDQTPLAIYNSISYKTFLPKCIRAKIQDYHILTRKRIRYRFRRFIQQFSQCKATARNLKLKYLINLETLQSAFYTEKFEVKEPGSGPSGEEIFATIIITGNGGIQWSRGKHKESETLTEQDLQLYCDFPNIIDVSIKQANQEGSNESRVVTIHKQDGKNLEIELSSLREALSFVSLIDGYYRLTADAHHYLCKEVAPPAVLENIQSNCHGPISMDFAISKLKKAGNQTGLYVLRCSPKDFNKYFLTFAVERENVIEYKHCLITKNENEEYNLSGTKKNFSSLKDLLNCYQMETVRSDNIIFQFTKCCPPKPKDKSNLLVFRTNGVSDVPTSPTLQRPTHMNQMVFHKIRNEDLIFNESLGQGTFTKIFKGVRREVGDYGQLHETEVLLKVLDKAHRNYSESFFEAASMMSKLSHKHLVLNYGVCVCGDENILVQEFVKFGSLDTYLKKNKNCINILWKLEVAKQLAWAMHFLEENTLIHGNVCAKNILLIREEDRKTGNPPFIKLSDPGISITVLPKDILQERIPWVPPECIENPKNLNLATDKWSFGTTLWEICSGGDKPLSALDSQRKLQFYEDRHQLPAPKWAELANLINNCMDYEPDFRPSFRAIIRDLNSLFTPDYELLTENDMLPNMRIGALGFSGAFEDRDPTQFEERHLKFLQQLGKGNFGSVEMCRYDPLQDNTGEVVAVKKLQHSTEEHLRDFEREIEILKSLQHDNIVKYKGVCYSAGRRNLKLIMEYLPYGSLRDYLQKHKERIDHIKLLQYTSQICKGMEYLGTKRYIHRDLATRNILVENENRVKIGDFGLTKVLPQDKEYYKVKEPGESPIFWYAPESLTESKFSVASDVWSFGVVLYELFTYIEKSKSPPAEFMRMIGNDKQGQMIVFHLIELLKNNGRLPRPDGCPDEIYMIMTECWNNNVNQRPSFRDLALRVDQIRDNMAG
Source text: In LANCE® Kinase Assay (JAK2_IC50 selectivity assay): JAK2 (Invitrogen, Cat. No PV4288), ATP (Sigma, Cat. No. A7699-1G), DMSO (Sigma, Cat. No. D2650), DTT (Sigma, Cat. No. 43815), LANCE Ultra ULight™-JAK-1 peptide (Perkin Elmer, Cat. No. TRF0121), LANCE Eu-W1024 Anti-phosphotyrosine (PT66) (Perkin Elmer, Cat. No. AD0069), LANCE™ Detection Buffer (Perkin Elmer, Cat. No. CR97-100), Tofacitinib (PharmaBlock Sciences(Nanjing), Inc, Cat. No. PBN2011586-01); Equipments: Envision (Perkin Elmer), Bravo (Agilent); Consumables: 384 well Intermediate plate (Greiner, Cat. No. 781280), 384 well assay plate (Perkin Elmer, Cat. No. 6007299),
The assay involves two steps, the enzymatic step and the detection step with HTRF reagents. Step 1: During the enzymatic step the substrate-biotin is incubated with the kinase of interest. ATP is added to start the reaction. Step 2: The detection reagent catches the phosphorylated substrate and the resulting TR-FRET is proportional to the phosphorylation level.
Compound Preparation: Dissolve the test compounds into 30 mM DMSO solution and put them in nitrogen hood at room temperature for long term storage; Dilute the 30 mM compound in DMSO with 3-fold factor, total 11 concentrations; Aspirate 1 μl compound and then dilute them in 25 folds with kinase buffer. Mix well and balance 30 minutes at room temperature.
Kinase Reaction: Transfer 2.5 μl compounds in kinase buffer (4×) into assay plate by Agilent Bravo. Spin the plate; Transfer 5 μl enzyme mixture into the assay plate by using Eppendorf electronic multi-channel pipette. Spin the plate; Incubate the assay plate for 20 minutes at room temperature (23° C.); Add 2.5 μl kinase buffer with ATP into the assay plate by using Multidrop. Spin and seal the plate; Incubate the assay plate for 90 minutes at room temperature (23° C.).
Stop Reaction: Transfer 10 μl detection reagent (2 nM LANCE Eu-W1024 Anti-phosphotyrosine) into the assay plate by using Eppendorf electronic multi-channel pipette. Spin and seal the plate; Incubate the assay plate at room temperature (23° C.) for 60 minutes.
Detection and Read: The excitation wavelength is 340 nm, the primary emission wavelength is 615 nm and the secondary emission wavelength is 665 nm (for Cryptate and Ulight, respectively). Read the plate with EnVision to get the readout of both wavelengths; Calculate the ratio of 665 nm/615 nm.
as §1

LRRK2 G2019S, sequence (Q5S007 970-2527 G2019S): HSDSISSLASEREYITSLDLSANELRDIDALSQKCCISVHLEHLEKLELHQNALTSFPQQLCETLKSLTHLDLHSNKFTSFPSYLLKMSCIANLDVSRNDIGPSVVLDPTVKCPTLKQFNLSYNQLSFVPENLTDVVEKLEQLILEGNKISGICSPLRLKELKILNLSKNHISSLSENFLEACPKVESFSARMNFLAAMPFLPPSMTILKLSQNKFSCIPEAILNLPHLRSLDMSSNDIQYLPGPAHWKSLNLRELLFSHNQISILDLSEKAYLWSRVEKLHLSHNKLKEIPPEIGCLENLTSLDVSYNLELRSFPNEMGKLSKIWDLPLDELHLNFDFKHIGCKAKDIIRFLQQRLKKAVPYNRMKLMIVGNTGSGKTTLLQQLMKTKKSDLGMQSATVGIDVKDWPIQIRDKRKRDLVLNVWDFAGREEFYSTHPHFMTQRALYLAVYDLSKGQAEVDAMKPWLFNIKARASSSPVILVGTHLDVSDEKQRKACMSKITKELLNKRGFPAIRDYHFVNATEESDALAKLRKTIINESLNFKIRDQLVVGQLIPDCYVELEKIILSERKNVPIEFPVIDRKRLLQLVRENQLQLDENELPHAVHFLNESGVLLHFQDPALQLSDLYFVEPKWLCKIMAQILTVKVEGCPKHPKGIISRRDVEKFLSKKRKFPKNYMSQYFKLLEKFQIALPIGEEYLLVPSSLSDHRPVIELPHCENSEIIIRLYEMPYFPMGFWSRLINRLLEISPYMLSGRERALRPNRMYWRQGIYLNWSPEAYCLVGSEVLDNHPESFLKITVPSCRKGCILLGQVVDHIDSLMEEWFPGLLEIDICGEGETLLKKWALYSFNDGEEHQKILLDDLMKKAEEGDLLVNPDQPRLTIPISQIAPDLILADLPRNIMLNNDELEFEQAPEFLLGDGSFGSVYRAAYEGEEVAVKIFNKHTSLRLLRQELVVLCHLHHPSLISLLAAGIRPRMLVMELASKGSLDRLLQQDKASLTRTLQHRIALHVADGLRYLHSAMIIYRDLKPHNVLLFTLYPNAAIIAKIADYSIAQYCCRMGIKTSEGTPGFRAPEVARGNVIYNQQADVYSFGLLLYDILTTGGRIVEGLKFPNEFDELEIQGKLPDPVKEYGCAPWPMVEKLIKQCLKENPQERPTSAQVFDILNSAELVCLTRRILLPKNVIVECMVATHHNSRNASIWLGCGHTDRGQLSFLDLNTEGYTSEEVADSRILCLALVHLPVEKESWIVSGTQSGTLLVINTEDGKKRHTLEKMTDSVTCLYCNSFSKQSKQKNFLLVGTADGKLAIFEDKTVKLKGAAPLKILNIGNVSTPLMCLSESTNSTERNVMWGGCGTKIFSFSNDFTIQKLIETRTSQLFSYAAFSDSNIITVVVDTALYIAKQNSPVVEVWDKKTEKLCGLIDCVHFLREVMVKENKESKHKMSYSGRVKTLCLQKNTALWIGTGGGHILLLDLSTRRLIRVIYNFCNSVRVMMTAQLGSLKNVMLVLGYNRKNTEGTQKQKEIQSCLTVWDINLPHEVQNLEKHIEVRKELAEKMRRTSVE

Compound	IC50 (LRRK2 G2019S) [µM]	IC50 (JAK2) [µM]
2-(5,11-dihydro-4H-3,4,10,11-tetraazadibenzo[cd,h]azulen-4-yl)ethan-1-ol [Example 57]	0.26	–
4-(sec-butyl)-5,11-dihydro-4H-3,4,10,11-tetraazadibenzo[cd,h]azulene [Example 50]	0.12	–
4-(tetrahydro-2H-pyran-4-yl)-8-(trifluoromethyl)-5,11-dihydro-4H-3,4,7,10,11-pentaazadibenzo[cd,h]azulene [Example 89]	0.049	23
4-cyclobutyl-4,11-dihydro-5H-3,4,10,11-tetraazadibenzo[cd,h]azulen-5-one [Example 37]	0.02	–
4-cyclobutyl-5,11-dihydro-4H-3,4,10,11-tetraazadibenzo[cd,h]azulene [Example 51]	0.039	0.58
4-cyclopropyl-4,11-dihydro-5H-3,4,10,11-tetraazadibenzo[cd,h]azulen-5-one [Example 33]	0.03	–
4-cyclopropyl-5,11-dihydro-4H-3,4,10,11-tetraazadibenzo[cd,h]azulene [Example 47]	0.054	2.2
4-ethyl-4,11-dihydro-5H-3,4,10,11-tetraazadibenzo[cd,h]azulen-5-one [Example 32]	0.034	–
4-ethyl-5,11-dihydro-4H-3,4,10,11-tetraazadibenzo[cd,h]azulene [Example 46]	0.049	1.9
4-isobutyl-5,11-dihydro-4H-3,4,10,11-tetraazadibenzo[cd,h]azulene [Example 49]	0.067	–
4-isopropyl-4,11-dihydro-5H-3,4,10,11-tetraazadibenzo[cd,h]azulen-5-one [Example 34]	0.041	–
4-isopropyl-4,11-dihydro-5H-3,4,10,11-tetraazadibenzo[cd,h]azulen-5-one [Example 35]	0.075	–
4-isopropyl-5,11-dihydro-4H-3,4,10,11-tetraazadibenzo[cd,h]azulene [Example 48]	0.068	0.55
CN1CCCc2n[nH]c3ccnc1c23 [Example 16, 6-methyl-6,7,8,9-tetrahydro-2H-1,2,5,6-tetraazabenzo[cd]azulene]	3	–
CC(C)N1CCCc2n[nH]c3ccnc1c23 [Example 19, 6-isopropyl-6,7,8,9-tetrahydro-2H-1,2,5,6-tetraazabenzo[cd]azulene]	0.23	3.1
CC(C)CN1CCCc2n[nH]c3ccnc1c23 [Example 20, 6-isobutyl-6,7,8,9-tetrahydro-2H-1,2,5,6-tetraazabenzo[cd]azulene]	0.45	–
CN1CCC(N2CCCc3n[nH]c4ccnc2c34)CC1 [Example 26, 6-(1-methylpiperidin-4-yl)-6,7,8,9-tetrahydro-2H-1,2,5,6-tetraazabenzo[cd]azulene]	0.091	–
OCCN1CCCc2n[nH]c3ccnc1c23 [Example 28, 2-(2,7,8,9-tetrahydro-6H-1,2,5,6-tetraazabenzo[cd]azulen-6-yl)ethan-1-ol]	0.57	–

Compound	IC50 (LRRK2 G2019S) [µM]	IC50 (JAK2) [µM]
CC1Cc2n[nH]c3ccnc(c23)N(C2CCOCC2)C1 (stereo not drawn) [Example 30, 8-methyl-6-(tetrahydro-2H-pyran-4-yl)-6,7,8,9-tetrahydro-2H-1,2,5,6-tetraazabenzo[cd]azulene]	0.25	–
CC(C)N1CCC(N2C(=O)c3ccccc3-c3n[nH]c4ccnc2c34)CC1 [Example 42]	0.031	–
CN1Cc2ccccc2-c2n[nH]c3ccnc1c23 [Example 45, 4-methyl-5,11-dihydro-4H-3,4,10,11-tetraazadibenzo[cd,h]azulene]	0.071	2.1
c1ccc2c(c1)CN(C1CCCC1)c1nccc3[nH]nc-2c13 [Example 52]	0.033	–
c1ccc(N2Cc3ccccc3-c3n[nH]c4ccnc2c34)cc1 [Example 53]	0.033	–
CC(C)N1CCC(N2Cc3ccccc3-c3n[nH]c4ccnc2c34)CC1 [Example 56]	0.058	4.8
O=C1c2n[nH]cc2-c2n[nH]c3ccnc(c23)N1C1CCOCC1 [Example 65, 9-(tetrahydro-2H-pyran-4-yl)-5,9-dihydro-1,2,4,5,8,9-hexaazabenzo[cd]cyclopenta[h]azulen-10(2H)-one]	0.004	–
Cn1cc2c(n1)C(=O)N(C1CCOCC1)c1nccc3[nH]nc-2c13 [Example 66, 2-methyl-9-(tetrahydro-2H-pyran-4-yl)-5,9-dihydro-1,2,4,5,8,9-hexaazabenzo[cd]cyclopenta[h]azulen-10(2H)-one]	0.026	–
Cn1ncc2c1C(=O)N(C1CCOCC1)c1nccc3[nH]nc-2c13 [Example 67, 1-methyl-9-(tetrahydro-2H-pyran-4-yl)-5,9-dihydro-1,2,4,5,8,9-hexaazabenzo[cd]cyclopenta[h]azulen-10(1H)-one]	0.007	–
Cn1cc2c(n1)CN(C1CCOCC1)c1nccc3[nH]nc-2c13 [Example 70, 2-methyl-9-(tetrahydro-2H-pyran-4-yl)-2,5,9,10-tetrahydro-1,2,4,5,8,9-hexaazabenzo[cd]cyclopenta[h]azulene]	0.023	–
CCn1cc2c(n1)CN(C1CCOCC1)c1nccc3[nH]nc-2c13 [Example 72, 2-ethyl-9-(tetrahydro-2H-pyran-4-yl)-2,5,9,10-tetrahydro-1,2,4,5,8,9-hexaazabenzo[cd]cyclopenta[h]azulene]	0.015	0.66
CC(C)n1cc2c(n1)CN(C1CCOCC1)c1nccc3[nH]nc-2c13 [Example 74, 2-isopropyl-9-(tetrahydro-2H-pyran-4-yl)-2,5,9,10-tetrahydro-1,2,4,5,8,9-hexaazabenzo[cd]cyclopenta[h]azulene]	0.05	2.4
CC(C)n1cc2c(n1)CN(C1CCN(C)CC1)c1nccc3[nH]nc-2c13 [Example 81, 2-isopropyl-9-(1-methylpiperidin-4-yl)-2,5,9,10-tetrahydro-1,2,4,5,8,9-hexaazabenzo[cd]cyclopenta[h]azulene]	0.04	4.6
CC(C)N1CCC(N2Cc3nn(C)cc3-c3n[nH]c4ccnc2c34)CC1 [Example 82, 9-(1-isopropylpiperidin-4-yl)-2-methyl-2,5,9,10-tetrahydro-1,2,4,5,8,9-hexaazabenzo[cd]cyclopenta[h]azulene]	0.039	–
CCn1cc2c(n1)CN(C1CCN(C(C)C)CC1)c1nccc3[nH]nc-2c13 [Example 86, 2-ethyl-9-(1-isopropylpiperidin-4-yl)-2,5,9,10-tetrahydro-1,2,4,5,8,9-hexaazabenzo[cd]cyclopenta[h]azulene]	0.029	3
CC(C)N1CCC(N2Cc3nn(C(C)C)cc3-c3n[nH]c4ccnc2c34)CC1 [Example 88, 2-isopropyl-9-(1-isopropylpiperidin-4-yl)-2,5,9,10-tetrahydro-1,2,4,5,8,9-hexaazabenzo[cd]cyclopenta[h]azulene]	0.031	5.4
CCN1CCN(C2CCOCC2)c2nccc3[nH]nc1c23 [Example 94, 9-ethyl-6-(tetrahydro-2H-pyran-4-yl)-6,7,8,9-tetrahydro-2H-1,2,5,6,9-pentaazabenzo[cd]azulene]	0.82	–
